For experiment [1], the target named is Human immunodeficiency virus type 1 integrase (Human immunodeficiency virus 1, UniProt Q7ZJM1, C280S/F185K). As to the kind of experiment: Inhibition of HIV1 3'-processing activity of integrase F185K/C280S double mutant expressed in Escherichia coli BL21 (DE3).
The subject of experiment [2] is Human immunodeficiency virus type 1 integrase (Human immunodeficiency virus 1), Q7ZJM1 [F185K,C280S]. As to the kind of experiment: Inhibition of HIV1 integrase F185K/C280S double mutant dimerization expressed in Escherichia coli BL21 (DE3) at 110 uM after 1 hr by PAGE analysis.

The source made the active and inactive calls. The calls are words filed in the database; no cut-off is given here. Starred links: 1 amine or outer side, 2 acyl side, 3 side chain; linkers in the order of their positions; H or OH if unused. Non-standard residues stand in square brackets, D forms with d. Residues, ends and D or L forms follow the SMILES beside them. NH(CH2)8CO = O=C(CCCCCCCCN[*:1])[*:2]; X2 = O=C(C1CCCC(CN[*:1])C1)[*:2]; X4 = O=C(CCC(=O)[*:2])CN[*:1]; 12Ado = NCCCCCCCCCCCC(=O)O; Ahp = NCCCCCCC(=O)O; Ava = NCCCCC(=O)O

For orientation: IC50 means the concentration at which inhibition is half-maximal. A low value points to greater potency in that assay. The compound `CC[C@H](C)[C@H](NC(=O)[C@H](CC(=O)O)NC(=O)[C@@H](NC(=O)[C@H](C)NC(=O)[C@@H](NC(=O)[C@@H](NC(=O)[C@H](CC(=O)O)NC(=O)[C@@H](NC(=O)[C@@H](NC(=O)[C@H](CCCNC(=N)N)NC(=O)[C@H](CCC(=O)O)NC(=O)CNC(=O)[C@H](C)NC(=O)C1CCCC(CNC(=O)[C@H](CCCNC(=N)N)NC(=O)[C@H](CCCCN)NC(=O)[C@H](Cc2ccccc2)NC(=O)[C@H](CC(N)=O)NC(=O)[C@H](Cc2cnc[nH]2)NC(=O)[C@@H](NC(=O)[C@H](Cc2ccccc2)NC(=O)[C@@H](NC(=O)[C@H](C)NC(=O)[C@H](CCSC)NC(=O)[C@H](CCC(N)=O)NC(=O)[C@@H](NC(=O)[C@H](C)NC(=O)[C@@H](NC(=O)[C@H](CCCCN)NC(=O)[C@H](CC(C)C)NC(=O)[C@@H](N)Cc2cnc[nH]2)[C@@H](C)O)C(C)C)C(C)C)[C@@H](C)CC)C1)[C@@H](C)CC)C(C)C)[C@@H](C)CC)[C@@H](C)CC)[C@@H](C)O)C(=O)N[C@@H](CCC(N)=O)C(N)=O` (stereo not given in full) (H-HLKTAVQMAVFIHNFKR[X2]AGERIVDIIATDIQ-NH2) yielded an IC50 in experiment [1] of 1000 nM. Moreover, the inhibition entry in experiment [2] was “Active”. The matching figures for `CC[C@H](C)[C@H](NC(=O)[C@H](CC(=O)O)NC(=O)[C@@H](NC(=O)[C@H](C)NC(=O)[C@@H](NC(=O)[C@@H](NC(=O)[C@H](CC(=O)O)NC(=O)[C@@H](NC(=O)[C@@H](NC(=O)[C@H](CCCNC(=N)N)NC(=O)[C@H](CCC(=O)O)NC(=O)CNC(=O)[C@H](C)NC(=O)CCC(=O)CNC(=O)[C@H](CCCNC(=N)N)NC(=O)[C@H](CCCCN)NC(=O)[C@H](Cc1ccccc1)NC(=O)[C@H](CC(N)=O)NC(=O)[C@H](Cc1cnc[nH]1)NC(=O)[C@@H](NC(=O)[C@H](Cc1ccccc1)NC(=O)[C@@H](NC(=O)[C@H](C)NC(=O)[C@H](CCSC)NC(=O)[C@H](CCC(N)=O)NC(=O)[C@@H](NC(=O)[C@H](C)NC(=O)[C@@H](NC(=O)[C@H](CCCCN)NC(=O)[C@H](CC(C)C)NC(=O)[C@@H](N)Cc1cnc[nH]1)[C@@H](C)O)C(C)C)C(C)C)[C@@H](C)CC)[C@@H](C)CC)C(C)C)[C@@H](C)CC)[C@@H](C)CC)[C@@H](C)O)C(=O)N[C@@H](CCC(N)=O)C(N)=O` (H-HLKTAVQMAVFIHNFKR[X4]AGERIVDIIATDIQ-NH2): 430 nM and “Active”.

`CC[C@H](C)[C@H](NC(=O)[C@H](CC(=O)O)NC(=O)[C@@H](NC(=O)[C@H](C)NC(=O)[C@@H](NC(=O)[C@@H](NC(=O)[C@H](CC(=O)O)NC(=O)[C@@H](NC(=O)[C@@H](NC(=O)[C@H](CCCNC(=N)N)NC(=O)[C@H](CCC(=O)O)NC(=O)CNC(=O)[C@H](C)NC(=O)CCCCCCCCCCCNC(=O)[C@H](CCCNC(=N)N)NC(=O)[C@H](CCCCN)NC(=O)[C@H](Cc1ccccc1)NC(=O)[C@H](CC(N)=O)NC(=O)[C@H](Cc1cnc[nH]1)NC(=O)[C@@H](NC(=O)[C@H](Cc1ccccc1)NC(=O)[C@@H](NC(=O)[C@H](C)NC(=O)[C@H](CCSC)NC(=O)[C@H](CCC(N)=O)NC(=O)[C@@H](NC(=O)[C@H](C)NC(=O)[C@@H](NC(=O)[C@H](CCCCN)NC(=O)[C@H](CC(C)C)NC(=O)[C@@H](N)Cc1cnc[nH]1)[C@@H](C)O)C(C)C)C(C)C)[C@@H](C)CC)[C@@H](C)CC)C(C)C)[C@@H](C)CC)[C@@H](C)CC)[C@@H](C)O)C(=O)N[C@@H](CCC(N)=O)C(N)=O` (H-HLKTAVQMAVFIHNFKR[12Ado]AGERIVDIIATDIQ-NH2) yielded an IC50 in experiment [1] of 1300 nM. The inhibition entry in experiment [2] was “Active”. The matching figures for `CC[C@H](C)[C@H](NC(=O)[C@H](CC(=O)O)NC(=O)[C@@H](NC(=O)[C@H](C)NC(=O)[C@@H](NC(=O)[C@@H](NC(=O)[C@H](CC(=O)O)NC(=O)[C@@H](NC(=O)[C@@H](NC(=O)[C@H](CCCNC(=N)N)NC(=O)[C@H](CCC(=O)O)NC(=O)CNC(=O)[C@H](C)NC(=O)CCCCCCNC(=O)[C@H](CCCNC(=N)N)NC(=O)[C@H](CCCCN)NC(=O)[C@H](Cc1ccccc1)NC(=O)[C@H](CC(N)=O)NC(=O)[C@H](Cc1cnc[nH]1)NC(=O)[C@@H](NC(=O)[C@H](Cc1ccccc1)NC(=O)[C@@H](NC(=O)[C@H](C)NC(=O)[C@H](CCSC)NC(=O)[C@H](CCC(N)=O)NC(=O)[C@@H](NC(=O)[C@H](C)NC(=O)[C@@H](NC(=O)[C@H](CCCCN)NC(=O)[C@H](CC(C)C)NC(=O)[C@@H](N)Cc1cnc[nH]1)[C@@H](C)O)C(C)C)C(C)C)[C@@H](C)CC)[C@@H](C)CC)C(C)C)[C@@H](C)CC)[C@@H](C)CC)[C@@H](C)O)C(=O)N[C@@H](CCC(N)=O)C(N)=O` (H-HLKTAVQMAVFIHNFKR[Ahp]AGERIVDIIATDIQ-NH2): 910 nM and “Active”. The matching figures for “H-HLKTAVQMAVFIHNFKRKGGIGGYSAGERIVDIIATDIQ-NH2”: 1700 nM and “Active”.

`CC[C@H](C)[C@H](NC(=O)[C@H](CC(=O)O)NC(=O)[C@@H](NC(=O)[C@H](C)NC(=O)[C@@H](NC(=O)[C@@H](NC(=O)[C@H](CC(=O)O)NC(=O)[C@@H](NC(=O)[C@@H](NC(=O)[C@H](CCCNC(=N)N)NC(=O)[C@H](CCC(=O)O)NC(=O)CNC(=O)[C@H](C)NC(=O)CCCCCCCCNC(=O)[C@H](CCCNC(=N)N)NC(=O)[C@H](CCCCN)NC(=O)[C@H](Cc1ccccc1)NC(=O)[C@H](CC(N)=O)NC(=O)[C@H](Cc1cnc[nH]1)NC(=O)[C@@H](NC(=O)[C@H](Cc1ccccc1)NC(=O)[C@@H](NC(=O)[C@H](C)NC(=O)[C@H](CCSC)NC(=O)[C@H](CCC(N)=O)NC(=O)[C@@H](NC(=O)[C@H](C)NC(=O)[C@@H](NC(=O)[C@H](CCCCN)NC(=O)[C@H](CC(C)C)NC(=O)[C@@H](N)Cc1cnc[nH]1)[C@@H](C)O)C(C)C)C(C)C)[C@@H](C)CC)[C@@H](C)CC)C(C)C)[C@@H](C)CC)[C@@H](C)CC)[C@@H](C)O)C(=O)N[C@@H](CCC(N)=O)C(N)=O` (H-HLKTAVQMAVFIHNFKR[NH(CH2)8CO]AGERIVDIIATDIQ-NH2) displayed an IC50 in experiment [1] of 720 nM. For the same compound, in experiment [2], the inhibition result was “Active”. In turn, `CC[C@H](C)[C@H](NC(=O)[C@H](CC(=O)O)NC(=O)[C@@H](NC(=O)[C@H](C)NC(=O)[C@@H](NC(=O)[C@@H](NC(=O)[C@H](CC(=O)O)NC(=O)[C@@H](NC(=O)[C@@H](NC(=O)[C@H](CCCNC(=N)N)NC(=O)[C@H](CCC(=O)O)NC(=O)CNC(=O)[C@H](C)NC(=O)CCCCNC(=O)[C@H](CCCNC(=N)N)NC(=O)[C@H](CCCCN)NC(=O)[C@H](Cc1ccccc1)NC(=O)[C@H](CC(N)=O)NC(=O)[C@H](Cc1cnc[nH]1)NC(=O)[C@@H](NC(=O)[C@H](Cc1ccccc1)NC(=O)[C@@H](NC(=O)[C@H](C)NC(=O)[C@H](CCSC)NC(=O)[C@H](CCC(N)=O)NC(=O)[C@@H](NC(=O)[C@H](C)NC(=O)[C@@H](NC(=O)[C@H](CCCCN)NC(=O)[C@H](CC(C)C)NC(=O)[C@@H](N)Cc1cnc[nH]1)[C@@H](C)O)C(C)C)C(C)C)[C@@H](C)CC)[C@@H](C)CC)C(C)C)[C@@H](C)CC)[C@@H](C)CC)[C@@H](C)O)C(=O)N[C@@H](CCC(N)=O)C(N)=O` (H-HLKTAVQMAVFIHNFKR[Ava]AGERIVDIIATDIQ-NH2) came in with a half-maximal inhibitory concentration (IC50) in experiment [1] of 3750 nM. As for H-AGERIVDIIATDIQ-NH2, the IC50 in experiment [1] stood at 3000 nM. In turn, H-HLKTAVQMAVFIHNFKR-OH showed an IC50 in experiment [1] of 2000 nM.

These data come from ChEMBL document CHEMBL2396590, “Inhibition of HIV-1 integrase dimerization and activity with crosslinked interfacial peptides” (Bioorg Med Chem, 2013).
